Our source for the IC50 values is US20170151261A1, “SKIN WOUND HEALING AND SCAR REDUCTION WITH PROSTAGLANDIN EP4 AGONIST COMBINATIONS” (Allergan, Inc., priority 2012, published 2017).

Each structure is given as a SMILES string. pIC50: −log10 of the molar value.

The assay concerns the target EP4 (Homo sapiens, UniProt P35408). The assay is described as follows: EP4 binding (Ki / IC50).

EP4, sequence (P35408 whole entry): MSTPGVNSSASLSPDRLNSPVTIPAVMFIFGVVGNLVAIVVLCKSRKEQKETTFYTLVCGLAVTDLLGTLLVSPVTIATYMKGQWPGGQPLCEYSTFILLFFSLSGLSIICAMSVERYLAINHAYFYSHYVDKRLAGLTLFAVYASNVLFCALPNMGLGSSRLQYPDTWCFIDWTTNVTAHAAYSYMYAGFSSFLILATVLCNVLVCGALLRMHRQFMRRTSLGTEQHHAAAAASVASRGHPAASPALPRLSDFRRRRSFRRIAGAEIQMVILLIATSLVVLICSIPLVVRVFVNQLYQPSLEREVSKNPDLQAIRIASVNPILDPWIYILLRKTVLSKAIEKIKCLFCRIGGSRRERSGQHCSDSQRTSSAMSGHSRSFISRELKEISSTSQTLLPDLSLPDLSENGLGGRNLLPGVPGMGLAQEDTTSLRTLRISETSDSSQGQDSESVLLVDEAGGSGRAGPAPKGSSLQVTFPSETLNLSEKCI

What is called pIC50 is the IC50 on a negative log10 scale, so that one unit is a factor of ten. Low values mean a large IC50, high ones a small IC50. In the case of `CCCCC[C@H](O)c1ccc(N2C(=O)CC[C@@H]2CCCc2ccc(C(=O)O)s2)cc1`, the pIC50 is < 5.00.
